Drawing on PubChem BioAssay (NCI), this text covers GI50 and TGI for one molecule.

Among the test systems are BT-549 breast; HL-60(TB) leukemia; MCF7 breast; NCI/ADR-RES ovarian; OVCAR-3 ovarian; RPMI-8226 leukemia; SK-MEL-28 melanoma; SK-MEL-5 melanoma; TK-10 renal; UACC-257 melanoma.
What all share (experiment): DTP human tumour cell line panel, 48 h

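All cell lines were grown in 96-well plates and treated with compound for 48 hours. GI50 = concentration required for 50% inhibition of growth. TGI marks complete inhibition of growth.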

On to `COc1cc(/C=C2\CN(S(=O)(=O)c3ccc(C)cc3)C/C(=C\c3cc(CN4CCCCC4)c(O)c(OC)c3)C2=O)cc(CN2CCCCC2)c1O`, for which the GI50 (commonly the concentration at which growth is held to half of that of the control) with BT-549 breast was 1.38 µM; with HL-60(TB) leukemia, 1.88 µM; in the test on MCF7 breast, 0.375 µM; in the test on NCI/ADR-RES ovarian, 1.22 µM; in the test with OVCAR-3 ovarian it was 1.85 µM; in the test on RPMI-8226 leukemia it was 2.03 µM. For the same molecule, the GI50 was 1.61 µM in the test with SK-MEL-28 melanoma, 1.81 µM in the test with SK-MEL-5 melanoma, 1.98 µM in the test with TK-10 renal and 1.45 µM in the test with UACC-257 melanoma. The concentration for total growth inhibition (TGI) (commonly the concentration giving total growth inhibition) in the test on BT-549 breast stood at 2.77 µM; in the test on HL-60(TB) leukemia, 4.34 µM; with MCF7 breast, 2.39 µM; in the test with NCI/ADR-RES ovarian, 3.77 µM; in the test with OVCAR-3 ovarian, 3.59 µM; in the test with RPMI-8226 leukemia, 5.45 µM. Also, the total growth inhibition concentration (TGI) with SK-MEL-28 melanoma was 3.13 µM; in the test on SK-MEL-5 melanoma, 3.47 µM; in the test on TK-10 renal, 3.63 µM; in the test on UACC-257 melanoma, 3.02 µM.
